Test results from patent US11753403B2, “EIF4E inhibitors and uses thereof” (PIC Therapeutics, Inc., priority 2020, dated 2023).

Each molecule was assayed against Human eIF4E (aa 28-217) / biotin labeled 4G2 peptide (Homo sapiens (Human), UniProt P06730) (assay: Human eIF4E/4G2 binding assay (TR-FRET)). Settings: Human eIF4E/4G2 TR-FRET binding assay; head says IC50, legend says EC50.
Procedure: Example 5. Compound Testing in Human eIF4E/4G2 Binding Assay
Human eIF4E (aa 28-217) with a C-terminal His-tag was expressed in E. coli in inclusion bodies. The protein was solubilized with 8 M urea and purified under denaturing conditions using nickel-charged HisTrap HP columns (GE Healthcare). The purified protein was then refolded by diluting in 20 mM Hepes pH 7.0, 0.5 M NaCl, 1 mM DTT, 1 mM EDTA, 0.5 M arginine plus 6 M urea, and then dialyzing overnight into the same buffer without the urea. The protein was further dialyzed into 20 mM Hepes, pH 6.5, 50 mM NaCl, 1 mM EDTA, 1 mM DTT, and concentrated using Hitrap SP sepharose FF columns (GE Healthcare). The concentrated protein was dialyzed into 20 mM Hepes, pH 7.0, 0.5M NaCl, 5 mM DTT and 10% glycerol, and stored at −80° C. until use.
Test compounds (3.43 mM stock in DMSO) were diluted 2-fold in series in DMSO (10 concentration points). Compound solutions (1.2 μl/well) were added into black 384-well polypropylene microplates (Matrix, Thermal Scientific). Twenty-two microliters per well of Assay Buffer (50 mM NaPi, pH 6.5, 50 mM KCl, 1 mM DTT and 0.5 mg/ml gamma globulin) and eight microliters per well of 82.5 nM purified eIF4E in Assay Buffer were added. The samples were incubated at room temperature (20-23° C.) for 4 hours. Biotin labeled 4G2 peptide (Ac-Lys-Gln-Tyr-Asp-Arg-Glu-Phe-Leu-Leu-Asp-Phe-Gln-Phe-Met-Pro-Lys(Aha-Bio)-NH2, 1.75 μM stock in DMSO) was diluted to 0.14 μM in Assay Buffer (without DTT) and 5 μl/well was added. The samples were incubated at room temperature for 20 min. Five microliters per well of 6.4 nM Eu-streptavidin (Eu-SA, Perkin Elmer) and 80 nM Allophycocyanin (APC)-anti His antibody (Columbia Biosciences) in Assay Buffer (without DTT) were then added and the samples were incubated at room temperature for 20 min.
Assay signals were monitored by reading excitation at 340 nm and emission fluorescence at 615 nm and 665 nm on an Envision reader (Perkin Elmer). Normalized TR-FRET (time-resolved fluorescence resonance energy transfer) assay signal (Rn) was calculated by the formula: Rn=[(A−Ba−C×D)/(D−Bd)]×(Dc−Bd) Where A is the fluorescence intensity of the sample at 665 nm, • D is the fluorescence intensity of the sample at 615 nm, • Ba and Bd are plate backgrounds at 665 nm and 615 nm, respectively, • Dc is the fluorescence intensity of 0.78 nM Eu-SA in the assay buffer at 615 nm The cross-talk factor (C) is determined by the following formula: C=(Ac−Ba)/(Dc−Bd) Where Ac is the fluorescence intensity of 0.78 nM Eu-SA in the assay buffer at 665 nm.
IC50 values were calculated using xLFit program (IDBS). Table 2 below lists EC50 of some compounds, wherein A represents EC50≤1 uM; B represents 1 uM<EC50≤10 uM; and C represents EC50>10 uM.

Chain of Human eIF4E (aa 28-217) / biotin labeled 4G2 peptide (P06730 28-217): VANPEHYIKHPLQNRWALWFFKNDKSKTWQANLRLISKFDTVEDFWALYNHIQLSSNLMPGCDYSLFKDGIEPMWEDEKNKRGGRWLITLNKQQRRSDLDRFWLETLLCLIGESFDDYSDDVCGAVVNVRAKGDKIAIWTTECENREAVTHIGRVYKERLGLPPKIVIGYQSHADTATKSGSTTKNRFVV

Compound | IC50 [µM]
CC(C)Cc1sc(N(CCC(=N)N)Cc2ccccc2)nc1-c1ccc(Cl)c(Cl)c1 [I-230, 3-(benzyl(4-(3,4-dichlorophenyl)-5-isobutylthiazol-2-yl)amino)propanimidamide] | > 10
Cc1cc(CC(CNc2nc(-c3ccc(Cl)c(Cl)c3)c(CC(C)C)s2)C(=O)O)ccn1 (centres unmarked) [I-151] | 1 to 10
CC(C)Cc1sc(N2CCN(C(=O)OC(C)C)C(C(=O)O)C2)nc1-c1ccc(Cl)c(Cl)c1 (centres unmarked) [I-253, 4-(4-(3,4-dichlorophenyl)-5-isobutylthiazol-2-yl)-1-(isopropoxycarbonyl)piperazine-2-carboxylic acid] | 1 to 10
CC(C)Cc1sc(Nc2cc(C(=O)O)ccc2-c2ccccc2)nc1-c1ccc(Cl)c(Cl)c1 [I-255] | 1 to 10
CC(C)Cc1sc(N(CCC(=O)N2CCNCC2)Cc2ccccc2)nc1-c1ccc(Cl)c(Cl)c1 [I-134] | 1 to 10
COc1ncc(CC(CNc2nc(-c3ccc(Cl)c(Cl)c3)c(CC(C)C)s2)C(=O)O)cn1 (centres unmarked) [I-160] | > 10
CC(C)c1sc(Nc2ncc(-c3ccccc3)cc2C(=O)O)nc1-c1ccc(Cl)c(Cl)c1 [I-259, 2-(4-(3,4-dichlorophenyl)-5-isopropylthiazol-2-ylamino)-5-phenylnicotinic acid] | ≤ 1
Cc1noc(CN(CCC(=O)O)c2nc(-c3ccc(Cl)c(Cl)c3)c(CC(C)C)s2)n1 [I-68] | 1 to 10
CC(C)Cc1sc(N(CCC(=O)O)Cc2ccccc2)nc1-c1cc(F)c(F)c(F)c1 [I-81] | 1 to 10
O=C(O)C(CNc1nc(-c2ccc(Cl)c(Cl)c2)c(C2CC2)s1)Cc1ccccc1 (centres unmarked) [I-11] | 1 to 10
CC(C)CCc1sc(NCC(Cc2ccccc2)C(=O)O)nc1-c1ccc(Cl)c(Cl)c1 (centres unmarked) [I-180] | ≤ 1
CC(C)c1sc(Nc2cc(-c3ccccc3)sc2C(=O)O)nc1-c1ccc(Cl)c(Cl)c1 [I-278] | ≤ 1
CC(C)Cc1sc(N(CC(=O)O)Cc2ccccc2)nc1-c1ccc(Cl)c(Cl)c1 [I-59] | ≤ 1
COc1cccc(-c2nc(NCC(Cc3ccc4[nH]ccc4c3)C(=O)O)sc2C(C)C)c1 (centres unmarked) [I-37] | 1 to 10
CC(C)c1sc(NCC(Cc2cccc3c2OCO3)C(=O)O)nc1-c1ccc(Cl)c(Cl)c1 (centres unmarked) [I-2] | ≤ 1
CC(C)Cc1sc(Nc2ncccc2C(=O)O)nc1-c1ccc(Cl)c(Cl)c1 [I-233] | ≤ 1
CC(C)Cc1sc(NCc2cccc(O)n2)nc1-c1ccc(Cl)c(Cl)c1 [I-201, 6-((4-(3,4-dichlorophenyl)-5-isobutylthiazol-2-ylamino)methyl)pyridin-2-ol] | > 10
CC(C)Cc1sc(Nc2nnccc2C(=O)O)nc1-c1ccc(Cl)c(Cl)c1 [I-239] | 1 to 10
CC(C)Cc1sc(Nc2ccccc2C(=O)O)nc1-c1ccc(Cl)c(Cl)c1 [I-141, 2-(4-(3,4-dichlorophenyl)-5-isobutylthiazol-2-ylamino)benzoic acid] | 1 to 10
CC(C)Cc1sc(N(CCC(=O)O)CC2CCN(C)CC2)nc1-c1ccc(Cl)c(Cl)c1 [I-88] | > 10
CC(C)Cc1sc(Nc2cc(-c3cccnc3)sc2C(=O)O)nc1-c1ccc(Cl)c(Cl)c1 [I-273] | ≤ 1
CC(C)Cc1sc(-c2ccc(-c3ccccc3)c(C(=O)O)c2)nc1-c1ccc(Cl)c(Cl)c1 [I-225] | ≤ 1
O=C(O)C(CNc1nc(-c2ccc(Cl)c(Cl)c2)c(C2CC2)s1)Cc1ccc2[nH]ccc2c1 (centres unmarked) [I-17] | ≤ 1
CC(C)Cc1sc(Nc2ccc(Cl)c(C(=O)O)c2)nc1-c1ccc(Cl)c(Cl)c1 [I-208] | ≤ 1
CC(C)Cc1sc(N(CCC(=O)O)C(=O)c2ccccc2)nc1-c1ccc(Cl)c(Cl)c1 [I-144] | 1 to 10

Compound | IC50 [µM]
CC(C)Cc1sc(-c2cccc(C(=O)O)c2)nc1-c1ccc(Cl)c(Cl)c1 [I-203, 3-(4-(3,4-dichlorophenyl)-5-isobutylthiazol-2-yl)benzoic acid] | 1 to 10
CC(C)Cc1sc(N(CCC(=O)O)CC(N)=O)nc1-c1ccc(Cl)c(Cl)c1 [I-64] | 1 to 10
CC(C)Cc1sc(NCC(Cc2cccc(S(N)(=O)=O)c2)C(=O)O)nc1-c1ccc(Cl)c(Cl)c1 (centres unmarked) [I-173] | 1 to 10
COc1ccc(-c2nc(N(CCC(=O)O)Cc3ccccc3)sc2CC(C)C)cc1Cl [I-80] | 1 to 10
CC(C)Cc1sc(N(CCC(=O)O)CCC2CC2)nc1-c1ccc(Cl)c(Cl)c1 [I-106] | 1 to 10
CC(C)Cc1sc(NCC(Cc2c[nH]c3ccccc23)C(=O)O)nc1-c1ccc(Cl)c(Cl)c1 (centres unmarked) [I-26] | 1 to 10
CC(C)Cc1sc(N(CCC(=O)O)Cc2cccs2)nc1-c1ccc(Cl)c(Cl)c1 [I-65] | ≤ 1
CSc1sc(NCC(Cc2ccccc2)C(=O)O)nc1-c1ccc(Cl)c(Cl)c1 (centres unmarked) [I-206, 2-benzyl-3-(4-(3,4-dichlorophenyl)-5-(methylthio)thiazol-2-ylamino)propanoic acid] | 1 to 10
COc1cccc(-c2nc(NCC(Cc3ccccc3)C(=O)O)sc2C(C)C)c1 (centres unmarked) [I-28] | > 10
CC(C)Cc1sc(N(CCCN(C)C)CCC(=O)O)nc1-c1ccc(Cl)c(Cl)c1 [I-71] | > 10
COc1ccccc1CC(CNc1nc(-c2ccc(Cl)cc2)c(C(C)C)s1)C(=O)O (centres unmarked) [I-40] | 1 to 10
Cn1nnnc1-c1sc(Nc2ccsc2C(=O)O)nc1-c1ccc(Cl)c(Cl)c1 [I-269, 3-(4-(3,4-dichlorophenyl)-5-(1-methyl-1H-tetrazol-5-yl)thiazol-2-ylamino)thiophene-2-carboxylic acid] | 1 to 10
O=C(O)c1sc(C2CCCC2)cc1Nc1nc(CCc2ccccc2)c(-c2ccc(Cl)c(Cl)c2)s1 [I-309] | ≤ 1
CC(C)Cc1sc(N(CCC(=O)O)Cc2ccc3[nH]ccc3c2)nc1-c1ccc(Cl)c(Cl)c1 [I-55] | ≤ 1
CC(C)Cc1sc(Nc2ccnc(C(=O)O)c2)nc1-c1ccc(Cl)c(Cl)c1 [I-220] | 1 to 10
CC(=O)NC(CNc1nc(-c2ccc(Cl)c(Cl)c2)c(CC(C)C)s1)C(=O)O (centres unmarked) [I-140] | > 10
CC(C)Cc1sc(NCC(Cc2ccc(O)nc2)C(=O)O)nc1-c1ccc(Cl)c(Cl)c1 (centres unmarked) [I-162] | 1 to 10
CC(C)Cc1sc(N(CCC(=O)NCCN)Cc2ccccc2)nc1-c1ccc(Cl)c(Cl)c1 [I-131, N-(2-aminoethyl)-3-(benzyl(4-(3,4-dichlorophenyl)-5-isobutylthiazol-2-yl)amino)propanamide] | 1 to 10
CC(C)Cc1sc(N(CCCCN(C)C)CCC(=O)O)nc1-c1ccc(Cl)c(Cl)c1 [I-147, 3-((4-(3,4-dichlorophenyl)-5-isobutylthiazol-2-yl)(4-(dimethylamino)butyl)amino) propanoic acid] | 1 to 10
CC(C)Cc1sc(Nc2cc(-c3ccc(F)cc3)sc2C(=O)O)nc1-c1ccc(Cl)c(Cl)c1 [I-271] | ≤ 1
O=C(O)CCN(Cc1ccccc1)c1nc(-c2ccc(Cl)c(Cl)c2)c(Cn2ccnc2)s1 [I-122] | 1 to 10
CC(=O)NS(=O)(=O)CCN(Cc1ccccc1)c1nc(-c2ccc(Cl)c(Cl)c2)c(CC(C)C)s1 [I-99, N-(2-(benzyl(4-(3,4-dichlorophenyl)-5-isobutylthiazol-2-yl)amino)ethylsulfonyl)acetamide] | 1 to 10
CC(C)c1sc(Nc2ncc(-c3cccs3)cc2C(=O)O)nc1-c1ccc(Cl)c(Cl)c1 [I-260] | ≤ 1
CC(C)c1sc(NCC(Cc2ccc3[nH]ccc3c2)C(=O)O)nc1-c1ccc(Cl)cc1 (centres unmarked) [I-46] | 1 to 10
CC(C)Cc1sc(N(CCCCN)CCC(=O)O)nc1-c1ccc(Cl)c(Cl)c1 [I-146, 3-((4-aminobutyl)(4-(3,4-dichlorophenyl)-5-isobutylthiazol-2-yl)amino)propanoic acid] | > 10
